Laboratory results reported in patent US6914045B2, “Glycopeptide antibiotics” (Wyeth Holdings Corporation, priority 2001, dated 2005).

Legend:
Assay in all cases: in vitro antibacterial evaluation, MIC by broth dilution
Assay type in all cases: cell-based
[1] = tested on: Streptococcus sp.; conditions: broth dilution, 18 hours at 35° C.; for MIC Streptococcus pneumoniae (ATCC 6301): strain ATCC 6301; for MIC Streptococcus pneumoniae (GC 1894): strain GC 1894; for MIC Streptococcus pyogenes (GC 4563): strain GC 4563; for MIC Streptococcus agalactiae (GC 4564): strain GC 4564; for MIC Streptococcus pneumoniae (GC 4565): strain GC 4565
In short: (§1)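 Broth dilution per NCCLS standard M7-A2 in Muller-Hinton II […], with an inoculum of 5×10^5 CFU/mL and antibiotic spanning 64-0.06 μg/mL. The MIC is the lowest concentration that inhibits growth of the organism.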

[2] = tested on: Escherichia coli; conditions: for MIC Escherichia coli (ATCC 25922): strain ATCC 25922, 18 hours at 35° C.; for MIC Escherichia coli (GC 4559): strain GC 4559, 18 hours at 35° C.; for MIC Escherichia coli (GC 4560): strain GC 4560, 18 hours at 35° C.
In short: as §1

[3] = tested on: Enterococcus sp.; conditions: broth dilution, 18 hours at 35° C.; for MIC Enterococcus faecalis (ATCC 29212): strain ATCC 29212; for MIC Enterococcus faecalis (GC 2242): strain GC 2242; for MIC Enterococcus faecium (GC 2243): strain GC 2243; for MIC Enterococcus faecalis (GC 2691): strain GC 2691; for MIC Enterococcus faecalis (GC 3059): strain GC 3059; for MIC Enterococcus faecalis (GC 4552): strain GC 4552; for MIC Enterococcus faecalis (GC 4553): strain GC 4553; for MIC Enterococcus faecalis (GC 4554): strain GC 4554; for MIC Enterococcus faecium (GC 4556): strain GC 4556; for MIC Enterococcus faecium (GC 4557): strain GC 4557; for MIC Enterococcus avium (GC 4558): strain GC 4558; for MIC Enterococcus faecalis (GC 6189): strain GC 6189
In short: as §1

[4] = tested on: Staphylococcus sp.; conditions: broth dilution, 18 hours at 35° C.; for MIC Staphylococcus aureus (GC 1131): strain GC 1131; for MIC Staphylococcus aureus (ATCC 29213): strain ATCC 29213; for MIC Staphylococcus aureus (GC 3051): strain GC 3051; for MIC Staphylococcus aureus (GC 3053): strain GC 3053; for MIC Staphylococcus aureus (GC 4541): strain GC 4541; for MIC Staphylococcus aureus (GC 4542): strain GC 4542; for MIC Staphylococcus aureus (GC 4544): strain GC 4544; for MIC Staphylococcus aureus (GC 4545): strain GC 4545; for MIC Staphylococcus aureus-SMITH (GC 4543): strain GC 4543; for MIC Staphylococcus haemolyticus (GC 4546): strain GC 4546; for MIC Coagulase Negative Staphylococcus (GC 4547): strain GC 4547; for MIC Coagulase Negative Staphylococcus (GC 4548): strain GC 4548; for MIC Coagulase Negative Staphylococcus (GC 4549): strain GC 4549; for MIC Coagulase Negative Staphylococcus (GC 4551): strain GC 4551; for MIC Coagulase Negative Staphylococcus (GC 6257): strain GC 6257
In short: as §1

CC(c1ccccc1)C1NC(=O)CNC(=O)C(CO)NC(=O)C(C(O)C2CNC(=N)N2C2OC(CO)C(O)C(O)C2O)NC(=O)C(C(O)C2CNC(=N)N2)NC(=O)C(Cc2ccc(OC3OC(CO)C(OC4OC5COC(c6ccc(-c7ccc(Cl)cc7)cc6)OC5C(O)C4O)C(O)C3O)cc2)NC1=O (stereo not drawn) [Example 178, Cyclo[glycyl-β-methylphenylalanyl-O-[4-O-[4,6-O-[4-(4-chlorophenyl)benzylidene]hexopyranosyl]hexopyranosyl]tyrosyl-3-(2-iminoimidazolidin-4-yl)seryl-3-(3-hexopyranosyl-2-iminoimidazolidin-4-yl)serylseryl]]
4 µg/mL: MIC Enterococcus faecalis (ATCC 29212) ([3]; inoculum 5×10^5 CFU/mL) | MIC Enterococcus faecium (GC 2243) ([3]; inoculum 5×10^5 CFU/mL) | MIC Enterococcus faecalis (GC 4552) ([3]; inoculum 5×10^5 CFU/mL) | MIC Enterococcus faecium (GC 4556) ([3]; inoculum 5×10^5 CFU/mL) | MIC Enterococcus avium (GC 4558) ([3]; inoculum 5×10^5 CFU/mL) | MIC Enterococcus faecalis (ATCC 29212) [3] | MIC Enterococcus faecium (GC 2243) [3] | MIC Enterococcus faecalis (GC 4552) [3] | MIC Enterococcus faecium (GC 4556) [3] | MIC Enterococcus avium (GC 4558) [3] | MIC Staphylococcus aureus (GC 1131) ([4]; inoculum 5×10^5 CFU/mL) | MIC Staphylococcus aureus (GC 1131) [4] | MIC Staphylococcus aureus (GC 3053) [4] | MIC Staphylococcus aureus (GC 4545) [4] | MIC Staphylococcus aureus-SMITH (GC 4543) [4] | MIC Coagulase Negative Staphylococcus (GC 4551) [4]
8 µg/mL: MIC Enterococcus faecium (GC 4557) ([3]; inoculum 5×10^5 CFU/mL) | MIC Enterococcus faecium (GC 4557) [3] | MIC Staphylococcus aureus (GC 3051) [4] | MIC Staphylococcus aureus (GC 4541) [4] | MIC Staphylococcus aureus (GC 4542) [4] | MIC Staphylococcus aureus (GC 4544) [4] | MIC Staphylococcus haemolyticus (GC 4546) [4]
16 µg/mL: MIC Escherichia coli (GC 4560) [2] | MIC Enterococcus faecalis (GC 3059) ([3]; inoculum 5×10^5 CFU/mL) | MIC Enterococcus faecalis (GC 3059) [3] | MIC Staphylococcus aureus (ATCC 29213) [4]
0.5 µg/mL: MIC Enterococcus faecalis (GC 6189) ([3]; inoculum 5×10^5 CFU/mL) | MIC Enterococcus faecalis (GC 6189) [3] | MIC Coagulase Negative Staphylococcus (GC 4548) [4]
0.12 µg/mL: MIC Streptococcus pyogenes (GC 4563) ([1]; inoculum 5×10^5 CFU/mL) | MIC Streptococcus pyogenes (GC 4563) [1]
<0.06 µg/mL: MIC Streptococcus pneumoniae (ATCC 6301) ([1]; inoculum 5×10^5 CFU/mL) | MIC Streptococcus pneumoniae (GC 1894) ([1]; inoculum 5×10^5 CFU/mL) | MIC Streptococcus agalactiae (GC 4564) ([1]; inoculum 5×10^5 CFU/mL) | MIC Streptococcus pneumoniae (GC 4565) ([1]; inoculum 5×10^5 CFU/mL) | MIC Streptococcus pneumoniae (ATCC 6301) [1] | MIC Streptococcus pneumoniae (GC 1894) [1] | MIC Streptococcus agalactiae (GC 4564) [1] | MIC Streptococcus pneumoniae (GC 4565) [1]
>64 µg/mL: MIC Escherichia coli (ATCC 25922) [2] | MIC Escherichia coli (GC 4559) [2]
2 µg/mL: MIC Enterococcus faecalis (GC 2242) ([3]; inoculum 5×10^5 CFU/mL) | MIC Enterococcus faecalis (GC 4553) ([3]; inoculum 5×10^5 CFU/mL) | MIC Enterococcus faecalis (GC 4554) ([3]; inoculum 5×10^5 CFU/mL) | MIC Enterococcus faecalis (GC 2242) [3] | MIC Enterococcus faecalis (GC 4553) [3] | MIC Enterococcus faecalis (GC 4554) [3] | MIC Coagulase Negative Staphylococcus (GC 4549) [4] | MIC Coagulase Negative Staphylococcus (GC 6257) [4]
1 µg/mL: MIC Enterococcus faecalis (GC 2691) ([3]; inoculum 5×10^5 CFU/mL) | MIC Enterococcus faecalis (GC 2691) [3]
32 µg/mL: MIC Coagulase Negative Staphylococcus (GC 4547) [4]

CC(C)=CCCC(C)=CCOc1ccc(C2OCC3OC(OC4C(CO)OC(Oc5ccc(CC6NC(=O)C(C(C)c7ccccc7)NC(=O)CNC(=O)C(CO)NC(=O)C(C(O)C7CNC(=N)N7C7OC(CO)C(O)C(O)C7O)NC(=O)C(C(O)C7CNC(=N)N7)NC6=O)cc5)C(O)C4O)C(O)C(O)C3O2)cc1 (stereo not shown) [Example 183]
>64 µg/mL: MIC Escherichia coli (ATCC 25922) [2] | MIC Escherichia coli (GC 4559) [2]
<0.06 µg/mL: MIC Streptococcus pneumoniae (ATCC 6301) ([1]; inoculum 5×10^5 CFU/mL) | MIC Streptococcus pneumoniae (GC 1894) ([1]; inoculum 5×10^5 CFU/mL) | MIC Streptococcus pyogenes (GC 4563) ([1]; inoculum 5×10^5 CFU/mL) | MIC Streptococcus agalactiae (GC 4564) ([1]; inoculum 5×10^5 CFU/mL) | MIC Streptococcus pneumoniae (GC 4565) ([1]; inoculum 5×10^5 CFU/mL) | MIC Streptococcus pneumoniae (ATCC 6301) [1] | MIC Streptococcus pneumoniae (GC 1894) [1] | MIC Streptococcus pyogenes (GC 4563) [1] | MIC Streptococcus agalactiae (GC 4564) [1] | MIC Streptococcus pneumoniae (GC 4565) [1]
2 µg/mL: MIC Enterococcus faecium (GC 2243) ([3]; inoculum 5×10^5 CFU/mL) | MIC Enterococcus faecalis (GC 2691) ([3]; inoculum 5×10^5 CFU/mL) | MIC Enterococcus avium (GC 4558) ([3]; inoculum 5×10^5 CFU/mL) | MIC Enterococcus faecalis (GC 6189) ([3]; inoculum 5×10^5 CFU/mL) | MIC Enterococcus faecium (GC 2243) [3] | MIC Enterococcus faecalis (GC 2691) [3] | MIC Enterococcus avium (GC 4558) [3] | MIC Enterococcus faecalis (GC 6189) [3] | MIC Staphylococcus aureus (GC 3051) [4] | MIC Staphylococcus aureus (GC 3053) [4] | MIC Coagulase Negative Staphylococcus (GC 4548) [4] | MIC Coagulase Negative Staphylococcus (GC 6257) [4]
4 µg/mL: MIC Escherichia coli (GC 4560) [2] | MIC Enterococcus faecalis (GC 3059) ([3]; inoculum 5×10^5 CFU/mL) | MIC Enterococcus faecalis (GC 4553) ([3]; inoculum 5×10^5 CFU/mL) | MIC Enterococcus faecalis (GC 4554) ([3]; inoculum 5×10^5 CFU/mL) | MIC Enterococcus faecium (GC 4557) ([3]; inoculum 5×10^5 CFU/mL) | MIC Enterococcus faecalis (GC 3059) [3] | MIC Enterococcus faecalis (GC 4553) [3] | MIC Enterococcus faecalis (GC 4554) [3] | MIC Enterococcus faecium (GC 4557) [3] | MIC Staphylococcus aureus (ATCC 29213) [4] | MIC Staphylococcus aureus (GC 4542) [4] | MIC Staphylococcus aureus (GC 4544) [4] | MIC Staphylococcus aureus (GC 4545) [4] | MIC Staphylococcus aureus-SMITH (GC 4543) [4] | MIC Coagulase Negative Staphylococcus (GC 4547) [4] | MIC Coagulase Negative Staphylococcus (GC 4549) [4] | MIC Coagulase Negative Staphylococcus (GC 4551) [4]
8 µg/mL: MIC Enterococcus faecalis (ATCC 29212) ([3]; inoculum 5×10^5 CFU/mL) | MIC Enterococcus faecalis (GC 2242) ([3]; inoculum 5×10^5 CFU/mL) | MIC Enterococcus faecalis (GC 4552) ([3]; inoculum 5×10^5 CFU/mL) | MIC Enterococcus faecium (GC 4556) ([3]; inoculum 5×10^5 CFU/mL) | MIC Enterococcus faecalis (ATCC 29212) [3] | MIC Enterococcus faecalis (GC 2242) [3] | MIC Enterococcus faecalis (GC 4552) [3] | MIC Enterococcus faecium (GC 4556) [3] | MIC Staphylococcus aureus (GC 1131) ([4]; inoculum 5×10^5 CFU/mL) | MIC Staphylococcus aureus (GC 1131) [4] | MIC Staphylococcus aureus (GC 4541) [4] | MIC Staphylococcus haemolyticus (GC 4546) [4]
